PubChem BioAssay AID2743 (NMMLSC, 2010)
Active and inactive are the calls of the source.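 How the source made its calls: active means fitted half-maximal concentration for change in GFP expression of 33 µM or less; inactive means the rest.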

Test system: S. cerevisiae AGP1-GFP strain, flow cytometry GFP, 3 h
Experiment: concentration-dependent AGP1-GFP change, TOR pathway – cell-based, flow cytometry, S. cerevisiae, MLPCN hits, dose response (AID 2743)
Conditions: not given
Compound `CC(C)(C)C(=O)C(Cl)C(=O)Nc1ccccc1` (stereo not drawn) has an EC50 of 570 nM.
`CS(=O)(=O)c1nc(-c2cccs2)cc(C(F)(F)F)n1` gave an EC50 of 872 nM.
`CNc1nc(N)c([N+](=O)[O-])c(Nc2cccc(F)c2)n1` gave an EC50 of 9390 nM.
Compound `CN1CCN(C(=O)c2cc(COc3c(F)cccc3F)on2)CC1c1ccccc1` (stereo not drawn) has an EC50 of 3890 nM.
In the case of `CCOC(=O)CCS(=O)(=O)c1nc(-c2ccccc2)cc(C(F)(F)F)n1`, the EC50 is reported as 941 nM.
Work on `COc1ccc(N2CCN(C(=O)c3ccc(Br)cc3)CC2)c([N+](=O)[O-])c1` yielded an EC50 of 3840 nM.
Work on `COC(=O)CCS(=O)(=O)c1nc(-c2ccccc2)cc(C(F)(F)F)n1` yielded an EC50 of 943 nM.
With `CCOC(=O)CS(=O)(=O)c1nc(-c2ccccc2)cc(C(F)(F)F)n1` the EC50 was 1380 nM.
`O=C(OCC(=O)N1CCN(C(=O)c2ccco2)CC1)c1cc(-c2ccccc2)nc2ccccc12` gave an EC50 of 2830 nM.
`O=C(Oc1ccnc2cc(Cl)ccc12)N1CCCCCC1` gave an EC50 of 3860 nM.
With `O=C(C#Cc1cccc([N+](=O)[O-])c1)c1ccccc1` the EC50 was 305 nM.
Work on `Cc1ccc(S(=O)(=O)/N=C(\Sc2ccccc2)c2ccccc2)cc1` yielded an EC50 of 822 nM.
For `O=C(OCC(=O)N1CCN(C(=O)c2ccco2)CC1)c1cc(-c2cccc(Br)c2)nc2ccccc12`, the EC50 was 2810 nM.
Compound `Cc1cccc(C)c1NC(=O)C(Cl)C(=O)c1ccccc1` (stereo not drawn) has an EC50 of 781 nM.
In the case of `CCN(CC)C(=O)Oc1ccnc2cc(Cl)ccc12`, the EC50 is reported as 7220 nM.
`CC(=O)c1ccc(N2CCN(C(=O)c3ccc(Br)cc3)CC2)c(F)c1` gave an EC50 of 6920 nM.
`CS(=O)(=O)c1nc(-c2ccccc2)cc(C(F)(F)F)n1` showed an EC50 of 653 nM.
For `CCCOc1ccc(C(=O)NNC(=S)NC(=O)CC)cc1`, the EC50 was 1940 nM.

Test system: not listed separately
Experiment: as above
Conditions: S. cerevisiae AGP1-GFP strain, flow cytometry GFP, 3 h; at 33 µM (top of the series)
In the case of `O=C(OCC(=O)N1CCN(C(=O)c2ccco2)CC1)c1cc(-c2ccccc2)nc2ccccc12`, the GFP fluorescence (kMESF) is reported as 43.7 kMESF (inactive).
For `Cc1ccc2c(c1)c(/C=C/c1cc[n+](C)cc1)c(C)n2C`, the GFP fluorescence (kMESF) was 48.2 kMESF (inactive).
For `Cc1nn2c(-c3ccncc3)nnc2c2ccccc12`, the GFP fluorescence (kMESF) was 22.9 kMESF (inactive).
With `O=C1c2sc3nc4ccccc4n3c2C(=O)N1c1ccccc1Cl` the GFP fluorescence (kMESF) was 23.1 kMESF (inactive).
For `Oc1c(C(Nc2cccc(C(F)(F)F)c2)c2ccncc2)ccc2cccnc12` (stereo not drawn), the GFP fluorescence (kMESF) was 30.3 kMESF (inactive).
